{"source": "paper PMC7069095", "about": "“A cell-permeable peptide-based PROTAC against the oncoprotein CREPT proficiently inhibits pancreatic cancer” (Theranostics, 2020)", "key": {"[1]": {"experiment": "Circular dichroism (CD) spectroscopy", "type": "physicochemical", "conditions": "0.1 mg/mL in deionized water, room temperature", "experimental": "All peptides were dissolved in the deionized water at a final concentration of 0.1 mg/mL. The CD spectra were measured by using a 1 nm bandwidth with a 1 nm step resolution from 190 to 260 nm at room temperature (Jasco spectropolarimeter, Japan). Final spectra were obtained from the average of three parallel scans after subtracting a spectrum of deionized water recorded under the same conditions. Each sample was scanned thrice and the averaged spectrum was smoothed. The helicity were calculated by CDNN 2.1 [59], [60]."}, "Panc-1 cells [2]": {"test_system": "Panc-1 cells", "experiment": "Flow cytometry, entry of FITC-labeled peptides into cells", "type": "cell-based", "conditions": "conclusion from flow cytometry of FITC-labeled peptides in pancreatic cancer cells", "experimental": "To examine whether PRTC could permeate into pancreatic cancer cells, we synthesized fluorescein isothiocyanate (FITC) labeled PRTC, PRTC-m, PRTC-v, PRTC-r (PRTC without RRRRK) as well as TAT (a widely used cell penetrating peptide, as a positive control).\nFigure 3 Identification of the permeability of PRTC in Panc-1 cells. (A) Entry of FITC- labeled peptides into Panc-1 cells tested by flow cytometry. FITC-TAT is the positive control. Measurements were performed in triplicate. (B) Quantification of cellular uptake of Panc-1 cells treated with different concentrations of FITC-PRTC. (C) Confocal microscope images of Panc-1 cells treated with 10 μM FITC labeled peptides. Scale bars, 10 μm. (D) Confocal microscope images of Panc-1 cells treated with different dosages of FITC-PRTC. Scale bars, 10 μm."}, "[3]": {"target": "T1, endogenous CREPT protein in AsPc-1 cells (Homo sapiens, UniProt Q9NQG5)", "T1 construct": "endogenous protein level of CREPT in Panc-1, AsPc-1 and MIA-PaCa-2 cells; endogenous in cells; host or cells: Panc-1, AsPc-1, MIA PaCa-2", "T1 sequence (Q9NQG5 1-326)": "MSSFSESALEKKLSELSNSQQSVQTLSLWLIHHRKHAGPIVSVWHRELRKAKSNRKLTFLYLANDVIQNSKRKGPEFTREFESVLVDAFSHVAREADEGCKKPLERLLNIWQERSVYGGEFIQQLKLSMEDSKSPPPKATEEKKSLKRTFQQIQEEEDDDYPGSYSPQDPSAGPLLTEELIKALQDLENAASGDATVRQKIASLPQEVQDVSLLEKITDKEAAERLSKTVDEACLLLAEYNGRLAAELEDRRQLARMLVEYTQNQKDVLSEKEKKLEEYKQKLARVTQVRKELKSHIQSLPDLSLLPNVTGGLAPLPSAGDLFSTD", "experiment": "Western blot of endogenous CREPT (degradation)", "type": "cell-based", "conditions": "24 h incubation", "experimental": "For exogenous immunoprecipitation assays, HEK293T cells were plated in 60 mm dishes and then transfected with the indicated plasmids. After 24 h, cells were harvested using RIPA buffer (50 mM Tris-HCl pH 8.0, 2 mM EDTA pH 8.0, 150 mM NaCl, 1% NP-40, 0.5% sodium deoxycholate, 0.1% SDS) with mixed protease inhibitors. Cell lysates were incubated with 2 μg of the indicated antibodies and 30 μL of protein A/G-Sepharose beads at 4 °C overnight. Beads were eluted five times with lysis buffer (50 mM Tris-HCl pH 7.6, 1 mM EDTA pH 8.0, 165 mM NaCl, 0.5% NP-40), and thereafter, a western blot assay was performed to analyze the association by using the indicated antibodies. Western blot was performed as previously reported. Anti-β-actin and anti-Flag antibodies were purchased from Sigma. Anti-Myc antibody was purchased from Santa Cruz Biotechnology. Antibody against CREPT was produced in the laboratory.\nTo address whether PRTC could induce CREPT degradation, we examined the endogenous protein level of CREPT in Panc-1, AsPc-1 and MIA-PaCa-2 cells in the presence of different dosages of PRTC. […] Consistently, treatment with PRTC led to decreases in CREPT protein at different times (Figure 5B, S3A). […] To further visualize the degradation process, we stained the endogenous CREPT protein with an antibody against CREPT in the cells treated with FITC-labeled PRTC.\nFigure S3. PRTC induces CREPT degradation. […]"}, "Panc-1 cells [4]": {"test_system": "Panc-1 cells", "experiment": "Colony formation", "type": "cell-based", "conditions": "500 cells per well, 10 days, than the control cells", "experimental": "Cells were seeded into 6-well plates (500 cells per well) and cultured for 10 days, then washed with PBS and stained with 0.1% crystal violet. The number of colonies was counted by ImageJ and presented as the mean ± standard deviation (SD) from three individual experiments."}, "Panc-1 cells [5]": {"test_system": "Panc-1 cells", "experiment": "Wound healing", "type": "cell-based", "conditions": "10 μM for 24 h, FBS-free DMEM", "experimental": "Cells were seeded in 6-well plates. Monolayer cells were scratched after culturing to obtain at least 95% confluence. Cells were washed with PBS and maintained in FBS-free DMEM and then treated with 10 μM PRTC and PRTC-m for 24 h. Migration distance was observed by microscopy and was measured by ImageJ from three individual experiments."}, "Panc-1 xenograft tumors": {"test_system": "Panc-1 xenograft tumors", "experiment": "Xenograft tumor model", "type": "in vivo", "conditions": "female Balb/c nude mice, 10 mg/kg intraperitoneal every 2 days for 4 weeks, n=5, in comparison with control mice", "experimental": "(§1) For the xenograft model, 5×10^6 wild-type Panc-1 cells or CREPT knockout Panc-1 cells were subcutaneously injected into 4-week-old female Balb/c nude mice, which were purchased from Beijing Vital River Laboratory Animal Technology Co., Ltd. Each experimental group consisted of five mice. Mice bearing tumors were randomly divided into two groups and administered via intraperitoneal injection control solvent (0.9% saline) or PRTC (dissolved in 0.9% saline, 10 mg/kg) every 2 days for 4 weeks. The body weight of mice were measured every week after treated with 0.9% saline or PRTC. Tumor volume was measured by using the formula V = (a × b^2)/2 (V is volume, a is the length of the tumor, b is the width of the tumor)."}, "[6]": {"experiment": "Body weight and toxicity in mice bearing xenograft tumors", "type": "in vivo, Balb/c nude mice", "conditions": "10 mg/kg intraperitoneal, and HPDE6-C7 cells", "experimental": "as §1"}}, "note": "Entries after “also recorded” stand apart in the source; their conditions may differ. Non-standard residues stand in square brackets, D forms with d. Residues, ends and D or L forms follow the SMILES beside them. Hyp = O=C(O)[C@@H]1C[C@@H](O)CN1; Ahx = NCCCCCC(=O)O", "data": [{"smiles": "CC[C@H](C)[C@H](N)C(=O)N[C@@H](Cc1ccc(O)cc1)C(=O)N1C[C@H](O)C[C@H]1C(=O)N[C@@H](C)C(=O)N[C@@H](CC(C)C)C(=O)NCCCCCC(=O)N[C@@H](CCCCN)C(=O)N[C@@H](CC(=O)O)C(=O)N[C@H](C(=O)N[C@@H](CC(C)C)C(=O)N[C@@H](CO)C(=O)N[C@@H](CCC(=O)O)C(=O)N[C@@H](CCCCN)C(=O)N[C@@H](CCC(=O)O)C(=O)N[C@@H](CCCCN)C(=O)N[C@@H](CCCCN)C(=O)N[C@@H](CC(C)C)C(=O)N[C@@H](CCC(=O)O)C(=O)N[C@@H](CCC(=O)O)C(=O)N[C@@H](Cc1ccc(O)cc1)C(=O)N[C@@H](CCCCN)C(=O)N[C@@H](CCC(N)=O)C(=O)N[C@@H](CCCCN)C(=O)N[C@@H](CC(C)C)C(=O)N[C@@H](C)C(=O)N[C@@H](CCCNC(=N)N)C(=O)N[C@H](C(=O)N[C@@H](CCCNC(=N)N)C(=O)N[C@@H](CCCNC(=N)N)C(=O)N[C@@H](CCCNC(=N)N)C(=O)N[C@@H](CCCNC(=N)N)C(=O)N[C@@H](CCCCN)C(=O)O)C(C)C)C(C)C", "note": "[PRTC] (H-IY[Hyp]AL[Ahx]KDVLSEKEKKLEEYKQKLARVRRRRK-OH; N-terminus and C-terminus assumed)", "values": [{"measurement": "secondary structure by CD spectrum", "setting": "[1]", "result": "α-helix structure"}, {"measurement": "Helicity", "setting": "[1]; 190 to 260 nm, average of three scans, calculated by CDNN 2.1", "result": 50.1, "unit": "%"}, {"measurement": "cell permeability", "setting": "Panc-1 cells [2]", "result": "strong cell permeability"}, {"measurement": "CREPT protein level upon different dosages", "setting": "[3]", "result": "dramatically decreased"}, {"measurement": "colony formation", "setting": "Panc-1 cells [4]", "result": "fewer colonies"}, {"measurement": "cell movement (wound healing)", "setting": "Panc-1 cells [5]", "result": "decreased cell movement"}, {"measurement": "tumor weight and size", "setting": "Panc-1 xenograft tumors", "result": "significantly decreases"}, {"measurement": "toxicity", "setting": "[6]", "result": "relatively low; also recorded: no toxicity"}]}]}
